Assays:
human MPCs = test: Osteoblast differentiation of human MPCs/MSCs (ALP staining); format: cell-based
Procedure: FIG. 5A is a scheme of an exemplary synthesis of compound BP-Btz1. FIG. 5B is a series of images of bone slices pre-incubated with 1 μM BP-Btz1, Btz, or bisphosphonate (BP) overnight. Drug solutions were removed and bone slices were washed with PBS extensively. […] (BM) cells from UB^G76V-GFP mice were cultured on bone slices in the presence of M-CSF and RANKL for 9 days. Top images (a): GFP^+ cells were observed under a fluorescence microscope and GFP signal intensity was quantified. Middle images (b): bone slices were fixed and subjected to TRAP staining for osteoclasts (OCs). OC #/slice were counted. Bottom images (c): cells were removed from slices. Toluidine blue staining was performed and pit areas/slice were counted. […] The ALP^+ areas were measured by Image J. *P<0.05 vs. Btz-treated cells.
1. […] Following proteasome inhibitor administration, Ub^G76V accumulates and GFP fluorescence is readily apparent. GFP^+ OCs were detected at 4 and 8 hrs after adding Btz to OC cultures, which disappeared at 24 hrs. […] The number and area of OCs and resorption pits are assessed. The appearance, intensity and distribution of GFP^+ cells on bone slices and plastic surrounding bone slices during OC formation is observed and recorded. […] Area of ALP^+ and mineralized bone nodule, and the expression levels of OB marker genes (ALP, osteocalcin, Runx2) are measured. […]

Ub-proteins = test: Duration of ubiquitinization effect (FIG. 18); conditions: compared with Btz
mice = test: Survival of mice treated with Btz; format: in vivo, mouse
Source text: BP-Btz is expected to have a higher efficacy on 1) reducing OVX-induced bone loss and 2) promoting fracture healing in aged mice with lesser adverse systemic effects than those of Btz. A critical difference between BP-Btz and Btz is that in vivo BP-Btz brings Btz to bone, thereby exerting its bioactivity locally, while Btz can exert its bioactivity systemically. It is hypothesized that BP-Btz conjugates should have similar or better positive bioactivities than Btz on bone volume, but with a significant reduction in side effects. In humans, the toxicities of Btz include peripheral neuropathy and thrombocytopenis (Weathington and Mallampalli, 2014, J. Clin. Invest. 124:6-12). Little is known the toxicity of Btz in mice. […] Although not wishing to be bound by any particular theory, these adverse effects are thought to be due to the systemic distribution of the drug. Thus, the generation of bone-targeted Btz could meet a critical clinical need, by and increasing the local drug concentration to capitalize on the efficacy of BTz while reducing systemic side effects. Because proteasome inhibitors could increase bone volume in normal and OVX mice, and promote fracture healing in adult mice (Khedgikar et al., 2013, Cell Death Dis. 4:e778; Maseda et al., 2008, Cell Death Differ. 15:600-612), OVX and fracture models are used to examine the efficacy of the leading BP-Btz conjugates on bone. […]

| SMILES | osteoblast differentiation (human MPCs) | ubiquitinization effect (Ub-proteins) | survival rate (mice; aged mice) | survival (mice; young mice) |
| --- | --- | --- | --- | --- |
| CC(C)C[C@H](NC(=O)[C@H](Cc1ccccc1)NC(=O)c1cnccn1)B1OCCN(CCOC(=O)NC(P(=O)(O)O)P(=O)(O)O)CCO1 [BP-Btz1] | stimulates osteoblast differentiation | more sustained ubiquitinization effect than Btz | – | – |
| CC(C)C[C@H](NC(=O)[C@H](Cc1ccccc1)NC(=O)c1cnccn1)B(O)O [Btz, [(1R)-3-methyl-1-[[(2S)-1-oxo-3-phenyl-2[(pyrazinylcarbonyl)amino]propyl]amino]butyl] boronic acid] | – | – | 53% | 94% |
